The source of these data is ChEMBL document CHEMBL4411258, “Novel natural compounds from endophytic fungi with anticancer activity” (Eur J Med Chem, 2018).

≈ marks a conversion by molar mass, not a printed value.

Broadly, the IC50 is the point on the concentration scale where inhibition reaches its midpoint.

One assay deals with L02. Kind of assay: Cytotoxicity against human L02 cells by MTS assay. In kind it is cell-based. A general note: Tetrazolium assays rely on reduction of a dye to a coloured formazan, in cell work by metabolically active cells.
In a further assay the test system is PC-3. Kind of assay: Cytotoxicity against human PC3 cells by MTT assay. In kind it is functional, cell-based.
Assay [1] concerns HepG2. Kind of assay: Cytotoxicity against human HepG2 cells by MTT assay. In kind it is functional, cell-based.
A further assay deals with SW1990. Kind of assay: Cytotoxicity against human SW1990 cells by MTS assay. In kind it is functional, cell-based.
The test system of another assay is NCI-H446. Kind of assay: Cytotoxicity against human NCI-H446 cells by MTS assay. Format: functional, cell-based.
In the next assay the test system is HeLa. Kind of assay: Cytotoxicity against human HeLa cells by MTS assay. In kind it is functional, cell-based.
Assay [2] in a line: Cytotoxicity against mouse LM3 cells by MTS assay. Format: functional, cell-based.
In assay [3] the test system is A549. Kind of assay: Cytotoxicity against human A549 cells by MTS assay. Format: functional, cell-based.
Assay [4] concerns MCF7. Kind of assay: Cytotoxicity against human MCF7 cells by MTS assay. Format: functional, cell-based.
A further assay deals with Huh-7. Kind of assay: Cytotoxicity against human HuH7 cells by MTS assay. In kind it is functional, cell-based.
A further assay deals with Vero. Kind of assay: Cytotoxicity against African green monkey Vero cells by resazurin microplate assay. Format: cell-based. The note with it: Chlorocebus sabaeus. (Alamar Blue is a resazurin reagent that responds to reducing activity.)
The test system of the next assay is NCI-H187. Kind of assay: Cytotoxicity against human NCI-H187 cells by resazurin microplate assay. Format: functional, cell-based.
In assay [5] the test system is A549. Kind of assay: Cytotoxicity against human A549 cells by MTT assay. In kind it is functional, cell-based.
The test system of the next assay is MDA-MB-435. Kind of assay: Cytotoxicity against human MDA-MB-435 cells by MTT assay. In kind it is functional, cell-based.
Another assay has as its system SGC-7901. Kind of assay: Cytotoxicity against human SGC7901 cells by MTT assay. In kind it is functional, cell-based.
The test system of assay [6] is HL-60. Kind of assay: Cytotoxicity against human HL60 cells by MTT assay. In kind it is functional, cell-based.
The subject of assay [7] is HL-60. Kind of assay: Cytotoxicity against human HL60 cells by trypan blue staining based assay. In kind it is functional, cell-based.
A further assay has as its system BT-549. Kind of assay: Cytotoxicity against human BT549 cells after 48 hrs by neutral red dye based assay. In kind it is functional, cell-based. The note with it: BT-549, 48 h.
For the next assay, the system named is SK-OV-3. Kind of assay: Cytotoxicity against human SKOV3 cells after 48 hrs by neutral red dye based assay. In kind it is functional, cell-based. The note with it: SK-OV-3, 48 h.
For assay [8], the system named is MCF7. Kind of assay: Cytotoxicity against human MCF7 cells by MTT assay. In kind it is functional, cell-based.
Another assay concerns SH-SY5Y. Kind of assay: Cytotoxicity against human SH-SY5Y cells by MTT assay. Format: functional, cell-based.
In assay [9] the test system is A549. Kind of assay: Cytotoxicity against human A549 cells after 72 hrs by MTT assay. The note with it: A549, 72 h. In kind it is functional, cell-based.
The subject of assay [10] is HL-60. Kind of assay: Cytotoxicity against human HL60 cells after 72 hrs by MTT assay. In kind it is functional, cell-based. The note with it: HL-60, 72 h.
The test system of assay [11] is HepG2. Kind of assay: Cytotoxicity against human HepG2 cells after 72 hrs by MTT assay. The note with it: HepG2, 72 h. Format: functional, cell-based.
Assay [12] relates to MCF7. Kind of assay: Cytotoxicity against human MCF7 cells after 72 hrs by MTT assay. In kind it is functional, cell-based. The note with it: MCF7, 72 h.
The next assay concerns Raji. Kind of assay: Cytotoxicity against human Raji cells after 72 hrs by MTT assay. In kind it is functional, cell-based.
For the next assay, the system named is NCI-H460. Kind of assay: Cytotoxicity against human NCI-H460 cells after 48 hrs by sulforhodamine B assay. Format: functional, cell-based. For orientation: In SRB staining, fixed cells bind dye roughly in proportion to their protein.
Assay [13] concerns HepG2. Kind of assay: Cytotoxicity against human HepG2 cells after 48 hrs by sulforhodamine B assay. In kind it is functional, cell-based.
Assay [14] concerns MCF7. Kind of assay: Cytotoxicity against human MCF7 cells after 48 hrs by sulforhodamine B assay. Format: functional, cell-based.
A further assay has as its system SF-268. Kind of assay: Cytotoxicity against human SF268 cells after 48 hrs by sulforhodamine B assay. Format: functional, cell-based.
Assay [15] concerns HepG2. Kind of assay: Cytotoxicity against human HepG2 cells after 24 hrs by MTT assay. Format: functional, cell-based. The note with it: HepG2, 24 h.
For a further assay, the system named is MOLT-3. Kind of assay: Cytotoxicity against human MOLT3 cells by XTT assay. In kind it is functional, cell-based.

In the case of `CC(C)CCC[C@@H](C)[C@H]1CC[C@H]2[C@@H]3CC[C@H]4C[C@@H](O[C@@H]5O[C@H](CO)[C@@H](O)[C@H](O)[C@H]5O)CC[C@]4(C)[C@H]3CC[C@]12C`, the IC50 in the assay with L02 was found to be 4.7 µM; with PC-3 it was 6.1 µM; in the assay on HepG2 [1] it was 5.5 µM.
As for `O=C1CC[C@@H](c2ccc(O)c3c2[C@@H](O)CCC3=O)c2cccc(O)c21`, the IC50 (in the assay with SW1990; in the assay on L02; with NCI-H446; in the assay with HeLa; in assay [2]; in the assay on A549 [3]) was 1 to 20 µM throughout. The IC50 in the assay on MCF7 [4] and in the assay on Huh-7 was 1 to 20 µM in each case.
As for `C[C@@H]1CC[C@@H]2[C@H](C=C[C@H]3[C@H](/C=C/[C@H](C)O)OC(=O)[C@@]23C)C1`, the figures for the IC50 in the assay with Vero and with NCI-H187 were 31.5 µg/mL (≈ 108 µM) and 17.8 µg/mL (≈ 61.2 µM), respectively.
For `CC1=C[C@@H]2/C=C/C[C@H](C)/C=C(\C)[C@@H](O)C(=O)/C=C/C(=O)[C@]23C(=O)N[C@H]2Cc4c([nH]c5ccccc45)[C@@]1(C)[C@@H]23`, the IC50 in the assay with A549 [5] is 16.1 µM; in the assay on MDA-MB-435 it was 7.55 µM; in the assay with SGC-7901, 7.32 µM.
Molecule `Cc1cc2c(c3c1C(=O)Oc1c(C)c4c(c(O)c1O3)C(=O)OC4)CO2` showed an IC50 with NCI-H446 of 63 µM.
On to `CC1=C[C@@H]2/C=C/C[C@H](C)/C=C(\C)C(=O)C(=O)/C=C/C(=O)[C@]23C(=O)N[C@H]2Cc4c([nH]c5ccccc45)[C@@]1(C)[C@@H]23`, for which the IC50 with A549 [5] stood at 8.73 µM; in the assay with MDA-MB-435, 4.65 µM; in the assay with SGC-7901, 5.32 µM.
The molecule `COC1=C2c3cc(OC)cc(O)c3C(=O)O[C@]2(C)CC1=O` registered an IC50 in the assay with HL-60 [6] of 75.3 µM.
In the case of `CC(C)=CCCC(C)(O)[C@H]1CC[C@@]2(C)OC3=C(C[C@@H]12)C(=O)[C@@H](O)CC3` (stereo partly specified), in the assay with HL-60 [7], half-maximal inhibition (IC50) required 32.5 µM.
As for `C=C(CC[C@@H](C)[C@H]1CC=C2C3=C([C@@H](O)[C@H](OC(C)=O)[C@@]21C)[C@@]1(C)C[C@@H](O)[C@H](OC(C)=O)C(C)(C)[C@@H]1CC3)C(C)C`, the values for the IC50 in the assay on BT-549 and with SK-OV-3 were 1.97 µg/mL (≈ 3.54 µM) and 0.16 µg/mL (≈ 0.287 µM), respectively.
As for `COC(=O)[C@@H]1c2c(oc3cc(C)cc(OC)c3c2=O)C=C[C@H]1O`, the IC50 was found to be 8.4 µM with MCF7 [8], 8.2 µM in the assay on A549 [5], 7.8 µM with SH-SY5Y and 6.9 µM with PC-3.
On to `CC(C)=CC/C=C(/C)[C@H]1CC[C@@]2(C)OC3=C(C[C@@H]12)C(=O)CC[C@@H]3O`, for which, in the assay with HL-60 [7], half-maximal inhibition (IC50) required 30.6 µM.
On to `O=C1CC[C@@H](c2ccc(O)c3c2C(=O)CCC3=O)c2cccc(O)c21`, for which the IC50 (in the assay on SW1990; in the assay with L02; in the assay on NCI-H446; with HeLa; in assay [2]; in the assay with A549 [3]) was 1 to 20 µM each time. Moreover, the IC50 in the assay with MCF7 [4] and in the assay on Huh-7 was 1 to 20 µM in each case.
As for `COc1cc(=O)oc(CO)c1[C@H](C)O`, the IC50 with A549 [9], in the assay on HL-60 [10], in the assay on HepG2 [11], in the assay on MCF7 [12] and in the assay on Raji was 1 to 26.8 µg/mL (≈ 5 to 134 µM) each time.
`COC1=C2c3cc(OC)cc(O)c3C(=O)O[C@@]2(C)CC1=O` yielded an IC50 with HL-60 [6] of more than 200 µM.
Regarding `C/C1=C\C(=O)OC[C@]23CCC(C(=O)O)=C[C@H]2O[C@@H]2CC(OC(=O)/C=C\C=C\[C@H]([C@H](C)O)OCC1)[C@@]3(C)[C@]21CO1` (stereo partly specified), the IC50 with NCI-H460 (nci-h460) was 0.36 µM; with HepG2 [13] (hepg2), 0.38 µM; with MCF7 [14] (mcf7), 0.17 µM; in the assay on SF-268 (sf-268), 0.751 µM.
For `C/C=C(\C)C(=O)[C@@H](C)c1cc(O)c2c(c1O)O[C@]1(C)CC[C@H]3O[C@@H](C(C)(C)O)CC[C@]3(C)[C@H]1C2=O`, the IC50 in the assay on NCI-H460 (Homo sapiens, NCI-H460, 48 h) lay in the range of 6.4 to 42.6 µM; in the assay on HepG2 [13] (Homo sapiens, HepG2, 48 h) it was 6.4 to 42.6 µM; in the assay with MCF7 [14] (Homo sapiens, MCF7, 48 h) it was 6.4 to 42.6 µM; in the assay on SF-268 (Homo sapiens, SF-268, 48 h), 6.4 to 42.6 µM.
Take `CC(=O)OC(CC=C(C)C)C[C@@]1(C)CCC[C@H]2[C@@]3(C)C=CC(=O)[C@@H](C)[C@@H]3[C@H](OC(C)=O)C(=O)[C@@]21C` (stereo partly specified): the midpoint of inhibition in the assay on HepG2 [15], the IC50, lay at 140 µM.
Take `C/C(=C\C=C\[C@H](O)[C@@H](C)O)[C@H](O)[C@H](C)C(=O)O[C@H]1C[C@H](C)C[C@@H]2C=C[C@H](C)[C@](C)(C(=O)CCO)[C@@H]12`: the midpoint of inhibition in the assay on MOLT-3, the IC50, lay at 37.3 µg/mL (≈ 75.7 µM).
Turning to `CO[C@@H]1CCC(=O)c2c([C@@H]3CCC(=O)c4c(O)cccc43)ccc(O)c21`, the IC50 (in the assay with SW1990; in the assay with L02; in the assay on NCI-H446; in the assay on HeLa; in assay [2]; in the assay on A549 [3]) was 1 to 20 µM throughout. For the same molecule, the IC50 in the assay with MCF7 [4] and in the assay on Huh-7 was 1 to 20 µM each time.
